In assay [1] the target is T1, human Cystic Fibrosis Transmembrane Conductance Regulator (CFTR) harboring the ΔF508 mutation (Homo sapiens, UniProt P13569, DEL508-508).
T1 construct: expressed in transfected cells; host or cells: H441 carcinoma cell line (G418 selection)
Nature of the assay: H441 cell Emax and EC50: HRP-tagged ΔF508-CFTR cell-surface luminescence assay. Type of assay: cell-based. The following applies: H441 cells expressing HRP-tagged ΔF508-CFTR, 27° C. for two nights; for EC50: 15-point dose-response; for Emax: NCI-H441, % of maximum VX809 signal. From the text:
Example 36: H441 Cell Emax and EC50
Two cell lines were used, the H441 carcinoma line and the CFHBE41o− (41o−) human bronchial epithelial line. Both cell lines expressed human Cystic Fibrosis Transmembrane Conductance Regulator (CFTR) harboring the ΔF508 mutation and with an in-frame fusion in CFTR extracellular loop 4 of Horse Radish Peroxidase (HRP) under control of the CMV promoter. In the presence of the HRP tag, ΔF508-CFTR transported to the cell surface was detectable upon addition of an HRP substrate (Luminata Forte). Both cell types were cultivated at 37° C. with CO2.
For both cell types, the medium was changed every other day unless the culture was at low % confluence. Cells were used for the assays at ˜75% confluence.
DMSO/Compound Dilutions Plate for 15-Point Dose-Response Testing
To a polypropylene (PP) 384-well plate, 15 μls DMSO was added to all wells in columns 1-22 and 24 (low Control). 15 μls of 260 μM VX809 (Lumacaftor), Selleckchem S1565, was added to column 23 wells (high Control). 15 μls of 10 mM test compound or VX809 (control) were added to wells of row A. Serial dilutions of Row A compound were performed 2×15 μls in rows A through 0 (15-point).
A PP, 384-well plate containing the appropriate cell culture medium was prepared for each assay plate with 100 μls per well. For the doxycycline-induced 41o− cells, doxycycline for both the assay plate and the medium dilution plate was added at 0.0005 mg/ml to the medium.
Both cell lines were plated for the assay at 30 μls per 384-well at 3.4×10^e5 cells per ml (˜10K cells/well). H441 cells were plated on opaque, white, Corning plate 3704. 41o− cells were plated on collagen-coated opaque, white, Corning plate 356665. For 41o− cells, doxycycline was added to the medium.
Compound Addition/Assay Incubation
Using FX (Beckman) protocol, 10 μls diluted compound or medium was added per well to the Assay Plate as: 2 μls DMSO Dilution plate well is diluted in 100 μls of the Medium Dilution Plate well, mixed, and 10 μls is transferred to the Assay Plate.
The final assay dilution series is 24.5, 12.3, 6.1, 3.1, 1.5, 0.8, 0.4, 0.2, 0.1, 0.05, 0.02, 0.01, 0.006, 0.003, 0.001 and 0 μM. The 41o− assay plates were incubated at 37° C. w/CO2, the H441 assay plates were incubated at 27° C. w/CO2, each overnight for two nights.
Assay Result Determination
After being brought to room temperature, the assay plate liquid was removed. 30 uls of Luminata Forte (Millipore ELLUF0100) was added per well and incubated at room temperature for 10 min. The plates were then read on a Topcount, protocol LumiMatti (CPS, luminescence). The data was analyzed for % of maximum, maximum VX809 signal, and EC50 using Pearl and SPEED tools.

Assay [2] has as its target T2, CFTR (ΔF508 homozygous CF-HBE cells) (Homo sapiens, UniProt P13569, DEL508-508).
T2 construct: Primary human bronchial epithelial cells from a ΔF508 homozygous CF donor; host or cells: primary CF-HBE cells (ΔF508/ΔF508 donor)
Nature of the assay: TECC24 AUC fold over DMSO @10 uM: CFTR-mediated transepithelial chloride transport in primary CF-HBE cells. The format is cell-based. The conditions noted are these: 10 μM test agent, 48 hours, forskolin-stimulated IEQ AUC divided by vehicle AUC. As for the experimental part: Example 37: TECC24 AUC Fold Over DMSO @10 uM
The effects of a test agent on CFTR-mediated transepithelial chloride transport was measured using TECC24 recording analysis. Test agents were solubilized in DMSO. Solubilized test agents were mixed with incubation medium containing DMEM/F12, Ultroser G (2%; Crescent Chemical, catalog #67042), Hyclone Fetal Clone 11(2%; GE Healthcare, catalog #SH30066.02), bovine brain extract (0.25%; Lonza, catalog #CC-4098), insulin (2.5 μg/mL), IL-13 (10 ng/mL), hydrocortisone (20 nM), transferrin (2.5 μg/mL), triiodothyronine (500 nM), ethanolamine (250 nM), epinephrine (1.5 μM), phosphoethanolamine (250 nM), and retinoic acid (10 nM). Primary human bronchial epithelial cells from a ΔF508 homozygous CF donor (CF-HBE cells; from University of North Carolina Cystic Fibrosis Tissue Procurement Center), grown on Transwell HTS 24-well cell culture inserts (Costar, catalog #3378), were exposed to test agents or controls dissolved in incubation medium. The CF-HBE cells were cultured at 36.5° C. for 48 hours before TECC24 recordings were performed in the presence or absence of test agent, a positive control or vehicle (DMSO).
Following incubation, the transwell cell culture inserts containing the test agent or control-treated CF-HBE cells were loaded onto a TECC24 apparatus (TECC v7 or MTECC v2; EP Design) to record the transepithelial voltage (VT) and resistance (TEER) using 4 AgCl electrodes per well configured in current-clamp mode. The apical and basolateral bath solutions both contained (in mM) 140 NaCl, 5 KCl, 2 CaCl2, 1 MgCl2, 10 Hepes, and 10 glucose (adjusted to pH 7.4 with NaOH). To inhibit basal Na+ absorption, the ENaC inhibitor benzamil (10 μM) was added to the bath. Then, the adenylate cyclase activator, forskolin (10 μM), was added to the bath to activate CFTR. The forskolin-stimulated Cl— transport was halted by addition of CFTR inhibitor-172 (20 μM) to the bath at the end of the experiment to confirm specificity. VT and TEER recordings were digitally acquired at routine intervals using TECC or MTECC software (EP Design). VT and TEER were transformed into equivalent transepithelial Cl-current (IEQ), and the Area Under the Curve (AUC) of the IEQ time course between forskolin and CFTR inhibitor-172 addition is generated using Excel (Microsoft). Efficacy is expressed as the ratio of the test agent AUC divided by vehicle AUC. EC50s based on AUC are generated using the non-linear regression log(agonist) vs. response function in Prism software (GraphPad) with Hill Slope fixed=1.
If a test agent increased the AUC of the forskolin-stimulated IEQ relative to vehicle in CF-HBE cells, and this increase was inhibited by CFTR inhibitor-172, then the test agent was considered a CFTR corrector.

The term EC50 denotes the concentration at which the effect is half-maximal. In general, Emax refers to the maximal effect, on the per cent scale that the assay sets.

T2 sequence (P13569 with tags, fused parts or gaps DEL508-508): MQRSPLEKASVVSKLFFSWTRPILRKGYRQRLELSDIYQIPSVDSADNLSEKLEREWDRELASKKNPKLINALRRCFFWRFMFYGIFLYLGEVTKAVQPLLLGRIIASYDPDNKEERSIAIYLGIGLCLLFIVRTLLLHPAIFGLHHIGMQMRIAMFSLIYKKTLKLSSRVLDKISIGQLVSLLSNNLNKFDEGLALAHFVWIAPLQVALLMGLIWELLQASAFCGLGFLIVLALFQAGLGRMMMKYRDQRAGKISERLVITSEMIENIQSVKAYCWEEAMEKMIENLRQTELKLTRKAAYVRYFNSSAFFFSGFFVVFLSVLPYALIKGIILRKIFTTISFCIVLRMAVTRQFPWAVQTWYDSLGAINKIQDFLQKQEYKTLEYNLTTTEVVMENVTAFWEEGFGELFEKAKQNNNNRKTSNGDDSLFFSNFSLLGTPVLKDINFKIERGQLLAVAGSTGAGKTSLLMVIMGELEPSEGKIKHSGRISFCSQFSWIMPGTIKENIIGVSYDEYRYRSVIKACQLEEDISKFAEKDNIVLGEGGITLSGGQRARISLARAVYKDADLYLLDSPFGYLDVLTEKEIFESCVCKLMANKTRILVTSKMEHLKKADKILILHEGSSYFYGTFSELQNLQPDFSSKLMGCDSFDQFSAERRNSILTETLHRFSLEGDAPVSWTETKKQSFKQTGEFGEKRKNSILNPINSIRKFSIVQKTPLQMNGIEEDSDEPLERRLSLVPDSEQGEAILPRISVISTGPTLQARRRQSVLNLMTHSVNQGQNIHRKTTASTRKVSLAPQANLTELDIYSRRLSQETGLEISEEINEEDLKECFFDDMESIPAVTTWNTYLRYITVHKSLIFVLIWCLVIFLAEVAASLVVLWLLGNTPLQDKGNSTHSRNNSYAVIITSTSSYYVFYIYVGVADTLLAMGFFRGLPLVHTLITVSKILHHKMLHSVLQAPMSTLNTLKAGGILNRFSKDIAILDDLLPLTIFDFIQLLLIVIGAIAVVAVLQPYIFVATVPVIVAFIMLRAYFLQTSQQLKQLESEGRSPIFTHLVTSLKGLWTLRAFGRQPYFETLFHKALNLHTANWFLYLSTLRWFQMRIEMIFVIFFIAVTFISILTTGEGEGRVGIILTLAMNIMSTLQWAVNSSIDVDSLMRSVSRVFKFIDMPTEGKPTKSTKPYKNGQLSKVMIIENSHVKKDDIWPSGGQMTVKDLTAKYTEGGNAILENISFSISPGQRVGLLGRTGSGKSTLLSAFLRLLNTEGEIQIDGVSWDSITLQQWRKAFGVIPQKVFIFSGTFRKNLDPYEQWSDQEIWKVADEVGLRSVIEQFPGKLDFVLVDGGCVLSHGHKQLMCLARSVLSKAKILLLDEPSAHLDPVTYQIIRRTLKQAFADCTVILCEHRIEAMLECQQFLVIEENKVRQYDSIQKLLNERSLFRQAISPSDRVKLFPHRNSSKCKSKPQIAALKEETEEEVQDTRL
T1 sequence (P13569 with tags, fused parts or gaps DEL508-508): as above

Consider `CC(C)(C)[C@H](NC(=O)c1ccc2sccc2c1OCc1ccc(SC(F)(F)F)cc1)C(=O)O` [Compound 32-11, (2S)-3,3-dimethyl-2-(4-((4-((trifluoromethyl)thio)benzyl)oxy)-benzo[b]thiophene-5-carboxamido)butanoic acid], for which, in assay [1], the EC50 amounted to 1040 nM and the maximal effect (Emax) came out at 81.3%. In assay [2], the “TECC24 AUC fold over DMSO” value is given as “B (“B” refers to AUC @10 μM between 4-6)”.

In assay [1], `CC(C)(C)[C@H](NC(=O)c1ccc2sccc2c1OCc1nc2ccccc2s1)C(=O)O` [Compound 32-13, (2S)-2-(4-(benzo[d]thiazol-2-ylmethoxy)-benzo[b]thiophene-5-carboxamido)-3,3-dimethylbutanoic acid] yielded a concentration for a half-maximal effect (EC50) of 4120 nM and a maximal effect (Emax) of 143%. The “TECC24 AUC fold over DMSO” value in assay [2] is given as “C (“C” refers to AUC @10 μM < 4)”.

Turning to `CC(C)(C)[C@H](NC(=O)c1ccc2sccc2c1OCC1CCCCC1)C(=O)O` [Compound 32-14, (2S)-2-(4-(cyclohexylmethoxy)-benzo[b]thiophene-5-carboxamido)-3,3-dimethylbutanoic acid], in assay [1], the response was half-maximal at 2780 nM (EC50) and the Emax was 210%. Besides, the “TECC24 AUC fold over DMSO” value in assay [2] is on record as “C (“C” refers to AUC @10 μM < 4)”.

In assay [1], `CCC(C)(C)[C@H](NC(=O)c1ccc2sc(C)c(Cl)c2c1OCc1ccc(C(F)(F)F)cc1)C(=O)O` [Compound 33-1, (2S)-2-[[3-chloro-2-methyl-4-[[4-(trifluoromethyl)phenyl]methoxy]benzothiophene-5-carbonyl]amino]-3,3-dimethyl-pentanoic acid] registered an EC50 of 647 nM and an Emax of 308%. The “TECC24 AUC fold over DMSO” value in assay [2] is on record as “A (“A” refers to AUC @10 μM > 6)”.

As for `CC(C)CCc1cc2c(OCc3ccc(C(F)(F)F)cc3)c(C(=O)N[C@H](C(=O)O)C(C)(C)C)ccc2s1` [Compound 33-2, (2S)-2-[[2-isopentyl-4-[[4-(trifluoromethyl)phenyl]methoxy]benzothiophene-5-carbonyl]amino]-3,3-dimethyl-butanoic acid], in assay [1], the half-maximal effective concentration (EC50) turned out to be 441 nM and the Emax came to 216%. Also, the “TECC24 AUC fold over DMSO” value in assay [2] was “B (“B” refers to AUC @10 μM between 4-6)”.

Take `CC(C)(C)[C@H](NC(=O)c1ccc2sc(C(F)F)cc2c1OCc1ccc(C(F)(F)F)cc1)C(=O)O` [Compound 33-3, (2S)-2-(2-(difluoromethyl)-4-((4-(trifluoromethyl)benzyl)oxy)-benzo[b]thiophene-5-carboxamido)-3,3-dimethylbutanoic acid]: in assay [1], it took 884 nM to reach a half-maximal effect (EC50) and the maximal effect (Emax) stood at 350%. In addition, the “TECC24 AUC fold over DMSO” value in assay [2] is “A (“A” refers to AUC @10 μM > 6)”.

With `CC(C)c1cc2c(OCc3ccc(OC(F)(F)F)cc3)c(C(=O)N[C@H](C(=O)O)C(C)(C)C)ccc2s1` [Compound 33-4, (2S)-2-(2-isopropyl-4-((4-(trifluoromethoxy)benzyl)oxy)-benzo[b]thiophene-5-carboxamido)-3,3-dimethylbutanoic acid], in assay [1], a half-maximal effect (EC50) was put at 2350 nM and the Emax is 232%. The “TECC24 AUC fold over DMSO” value in assay [2] is “A (“A” refers to AUC @10 μM > 6)”.

In assay [1], `CC(C)(C)[C@H](NC(=O)c1ccc2sc(Cl)cc2c1OCc1ccc(C(F)(F)F)cc1)C(=O)O` [Compound 33-5, (2S)-2-(2-chloro-4-((4-(trifluoromethyl)benzyl)oxy)-benzo[b]thiophene-5-carboxamido)-3,3-dimethylbutanoic acid] yielded an EC50 of 262 nM and an Emax of 251%. Also, the “TECC24 AUC fold over DMSO” value in assay [2] is “A (“A” refers to AUC @10 μM > 6)”.

`CCC(C)(C)[C@H](NC(=O)c1ccc2sc(Cl)cc2c1OCc1ccc(C(F)(F)F)cc1)C(=O)O` [Compound 33-6, (2S)-2-(2-chloro-4-((4-(trifluoromethyl)benzyl)oxy)-benzo[b]thiophene-5-carboxamido)-3,3-dimethylpentanoic acid]: in assay [1], the EC50 is 500 nM and the maximum response (Emax) was determined as 279%. Moreover, the “TECC24 AUC fold over DMSO” value in assay [2] was “A (“A” refers to AUC @10 μM > 6)”.

In assay [1], `COc1cc2c(OCc3ccc(C(F)(F)F)cc3)c(C(=O)N[C@H](C(=O)O)C(C)(C)C)ccc2s1` [Compound 33-7, (2S)-2-(2-methoxy-4-((4-(trifluoromethyl)benzyl)oxy)-benzo[b]thiophene-5-carboxamido)-3,3-dimethylbutanoic acid] showed a 50% effective concentration (EC50) of 641 nM and an Emax of 312%. In addition, in assay [2], the “TECC24 AUC fold over DMSO” value is recorded as “A (“A” refers to AUC @10 μM > 6)”.

For the molecule `Cc1cc2ccc(C(=O)N[C@H](C(=O)O)C(C)(C)C)c(OCc3ccc(OC(F)(F)F)cc3)c2s1` [Compound 33-8, (2S)-3,3-dimethyl-2-(2-methyl-7-((4-(trifluoromethoxy)benzyl)oxy)-benzo[b]thiophene-6-carboxamido)butanoic acid], in assay [1], the EC50 came out at 658 nM and the Emax was found to be 155%. Besides, in assay [2], the “TECC24 AUC fold over DMSO” value is on record as “A (“A” refers to AUC @10 μM > 6)”.

As to `CCC(C)(C)[C@H](NC(=O)c1ccc2sc(C)c(Cl)c2c1OCc1ccc(OC(F)(F)F)cc1)C(=O)O` [Compound 33-9, (2S)-2-(3-chloro-2-methyl-4-((4-(trifluoromethoxy)benzyl)oxy)-benzo[b]thiophene-5-carboxamido)-3,3-dimethylpentanoic acid], in assay [1], it took 1130 nM to reach a half-maximal effect (EC50) and the Emax was found to be 250%. Further, the “TECC24 AUC fold over DMSO” value in assay [2] is “A (“A” refers to AUC @10 μM > 6)”.

In assay [1], `CCc1cc2ccc(C(=O)N[C@H](C(=O)O)C(C)(C)CC)c(OCc3ccc(OC(F)(F)F)cc3)c2s1` [Compound 33-10, (2S)-2-(2-ethyl-7-((4-(trifluoromethoxy)benzyl)oxy)-benzo[b]thiophene-6-carboxamido)-3,3-dimethylpentanoic acid] had an EC50 of 1250 nM and a maximum response (Emax) of 216%. The “TECC24 AUC fold over DMSO” value in assay [2] is listed as “B (“B” refers to AUC @10 μM between 4-6)”.
